Structures can show the parent of a compound that is named as a salt. One block for each molecule: values may come before it.
Legend:
rat isolated left atrium = assay: Inhibition of the contracture with veratrine, rat isolated left atrium; conditions: veratrine-induced contracture, 10^−7 M of test compound
Excerpt: (§1) The compounds of the present invention of formula I and the therapeutically acceptable salts thereof have advantageous pharmacological properties. These derivatives are active in vitro, on cardiomyocytes, by inhibiting the diastolic contracture induced with veratrine, on rat isolated left atrium. They also abolish the diastolic contracture induced by the global ischemia of infused isolated guinea pig heart according to the Langendorff technique. These compounds are also active in vivo, in reinfusion ischemia in anesthetized rabbits: they inhibit the electrical disturbances in the ECG which are caused by reinfusion ischemia, without any appreciable hemodynamic effect, and are not cardiac depressants. Such compounds are useful preventively or curatively in the treatment of coronaropathies, cardiac and cerebral ischemia in all their forms and in the treatment of atherosclerosis, cardiac insufficiency, pain, migraine and epilepsy.
1) Inhibition of the contracture with veratrine, of rat isolated left atrium, was carried out according to the technique of Le Grand et al. (Naunyn—Schmiedeberg's Arch Pharmacol (1993) 348 p 184-190). The results are given in Table I. The percentages of inhibition are relative to a concentration of 10^−7 M of test compound.

[1] = tested on: infused isolated guinea pig heart; assay: Inhibition of diastolic contracture induced by global ischemia of infused isolated guinea pig heart (Langendorff); conditions: global ischemia 50 min, relative to vehicle group; for inhibition at 1 µM: Cavia porcellus, 50 min
Excerpt: as §1
2) Inhibition of the diastolic contracture induced by the global ischemia of infused isolated guinea pig heart is carried out according to the technique described by Le Grand B. et al. (Am. J. Physiol. 269, H533-H540 (1995)). The guinea pig hearts collected are infused with a modified Krebs solution and, after stabilization for 20 minutes, the test compound dissolved in water or in aqueous 1% DMSO solution is added. After 15 minutes, global ischemia is induced by stopping the coronary infusion for 50 minutes, followed by reinfusion for 1 h. The inhibition of ischemic contracture, in the presence of the compounds of the present invention, is measured relative to that obtained in the vehicle group. The results are given in Table II by way of non-limiting example at a concentration of 1 μM.

anesthetized rabbits = assay: Ischemia-reinfusion in anesthetized rabbits, oral route; type: in vivo; conditions: anesthetized rabbit
Excerpt: as §1
The compounds of the present invention are also active via the oral route in the test of ischemia-reinfusion in anesthetized rabbits, according to the method of Verscheure et al. (J. Cardiovasc Pharmacol (1995) 25 p 126-133). The results for the compounds of Examples 6 and 14 are given in Table III below, by way of non-limiting example: […]

melting point: 170 °C
Molecule: CN(C1=Nc2ccccc2CS1)C1CCN(CCCCOCc2ccc(F)c(F)c2)CC1.O=C(O)/C=C/C(=O)O

% change in arterial pressure (anesthetized rabbits; 0.63 mg/kg p.o.): 5%
Molecule: CN(C1=Nc2ccccc2CS1)C1CCN(CCCCOc2ccc(F)c(F)c2)CC1 [Control, N-Methyl-N-[1-[4-(3,4-difluorophenoxy)butyl]-4-piperidyl)-4H-3,1-benzothiazin-2-amine]
inhibition at 0.1 µM (rat isolated left atrium): 26%
inhibition at 1 µM [1]: 48%
% change in heart rate (anesthetized rabbits; 0.63 mg/kg p.o.): 0%
% inhibition of over-increase of ST segment (anesthetized rabbits; 0.63 mg/kg p.o.): 31%
Number of animals with reinfusion arrhythmia (anesthetized rabbits; 0.63 mg/kg p.o.): 1/5

melting point: 166 to 167 °C
Molecule: CN(C1=Nc2ccccc2CS1)C1CCN(CCOCc2ccccc2)CC1.O=C(O)/C=C/C(=O)O

melting point: 165 °C
Molecule: COc1ccc(COCCCCN2CCC(N(C)C3=Nc4ccccc4CS3)CC2)cc1.O=C(O)/C=C/C(=O)O

melting point: 169 °C
Molecule: CN(C1=Nc2ccccc2CS1)C1CCN(CCCCCOCc2ccc(F)c(F)c2)CC1.O=C(O)/C=C/C(=O)O

melting point: 166 °C
Molecule: COc1ccc(COCCCN2CCC(N(C)C3=Nc4ccccc4CS3)CC2)cc1.O=C(O)/C=C/C(=O)O

melting point: 167 °C
Molecule: CN(C1=Nc2ccccc2CS1)C1CCN(CCCCCOCc2ccc(F)cc2)CC1.O=C(O)/C=C/C(=O)O

melting point: 158 to 159 °C
Molecule: Fc1ccc(CCOCCCN2CCC(NC3=Nc4ccccc4CO3)CC2)cc1 (as salt: hydrochloride) (hydrate or solvate) [Example 30, N-[1-[3-[2-(4-Fluorophenyl)ethoxypropyl]-4-piperidyl]-4H-3,1-benzoxazin-2-amine Dihydrochloride Hydrate]

melting point: 169 to 172 °C
Molecule: Cc1ccc2c(c1)CSC(N(C)C1CCN(CCCOCCc3ccc(F)cc3)CC1)=N2.O=C(O)/C=C/C(=O)O

melting point: 68 °C
Molecule: COc1cc2c(c(OC)c1OC)N=C(N(C)C1CCN(CCCOCCc3ccc(F)cc3)CC1)SC2.O=C(O)/C=C/C(=O)O

melting point: 168 °C
Molecule: CN(C1=Nc2ccccc2CS1)C1CCN(CCCOCc2ccc(F)c(F)c2)CC1.O=C(O)/C=C/C(=O)O

melting point: 167 to 170 °C
Molecule: CN(C1=Nc2ccc(Cl)cc2CS1)C1CCN(CCCOCCc2ccc(F)cc2)CC1.O=C(O)/C=C/C(=O)O

melting point: 163 °C
Molecule: CN(C1=Nc2ccccc2CS1)C1CCN(CCCCOCCc2ccc(F)c(F)c2)CC1.O=C(O)/C=C/C(=O)O

melting point: 155 °C
Molecule: COc1ccc(CCOCCCN2CCC(N(C)C3=Nc4ccccc4CS3)CC2)cc1.O=C(O)/C=C/C(=O)O

Molecule: N-Methyl-N-[1-[2-hydroxy-3-(4-fluorophenylmethoxy)-propyl]-4-piperidyl]-4H-3,1-benzothiazin-2-amine Hemifumarate [Example 23]
% inhibition at 10^−7 M (rat isolated left atrium): 35%

melting point: 156 °C
Molecule: COc1ccc(CCOCCCCN2CCC(N(C)C3=Nc4ccccc4CS3)CC2)cc1.O=C(O)/C=C/C(=O)O

% change in arterial pressure (anesthetized rabbits; 0.63 mg/kg p.o.): 3%
melting point: 162 °C
Molecule: CN(C1=Nc2ccccc2CS1)C1CCN(CCCOCCc2ccc(F)c(F)c2)CC1.O=C(O)/C=C/C(=O)O [Example 14, N-Methyl-N-[1-[3-[2-(3,4-difluorophenyl)ethoxy]propyl]-4-piperidyl]-4H-3,1-benzothiazin-2-amine Hydrogen Fumarate]
inhibition at 0.1 µM (rat isolated left atrium): 32%
inhibition at 1 µM [1]: 77%
% change in heart rate (anesthetized rabbits; 0.63 mg/kg p.o.): −5%
% inhibition of over-increase of ST segment (anesthetized rabbits; 0.63 mg/kg p.o.): 83%
Number of animals with reinfusion arrhythmia (anesthetized rabbits; 0.63 mg/kg p.o.): 0/5

melting point: 173 to 174 °C
Molecule: CN(C1=Nc2ccccc2CS1)C1CCN(CCCCOCCc2ccc(F)cc2)CC1.O=C(O)/C=C/C(=O)O [Example 5, N-Methyl-N-[1-[4-[2-(4-fluorophenyl)ethoxy]butyl]-4-piperidyl]-4H-3,1-benzothiazin-2-amine Hydrogen Fumarate]
inhibition at 0.1 µM (rat isolated left atrium): 63%

% change in arterial pressure (anesthetized rabbits; 10 mg/kg p.o.): 12%
Molecule: CN(c1nc2ccccc2s1)C1CCN(CC(O)COc2ccc(F)cc2)CC1 (stereo not drawn) [Sabeluzole]
inhibition at 0.1 µM (rat isolated left atrium): 5%
% change in heart rate (anesthetized rabbits; 10 mg/kg p.o.): 0%
% inhibition of over-increase of ST segment (anesthetized rabbits; 10 mg/kg p.o.): 34%
Number of animals with reinfusion arrhythmia (anesthetized rabbits; 10 mg/kg p.o.): 3/4

Molecule: CN(c1nc2ccccc2s1)C1CCN(CCCCOc2ccc(F)cc2)CC1 [Example R56865, N-(1-(4-(4-fluorophenoxy)butyl)4-piperidyl)-N-methyl-2-benzothiazolamine]
inhibition at 0.1 µM (rat isolated left atrium): 32%
% change in arterial pressure (anesthetized rabbits; 2.5 mg/kg p.o.): 27%
% change in heart rate (anesthetized rabbits; 2.5 mg/kg p.o.): 0%
% inhibition of over-increase of ST segment (anesthetized rabbits; 2.5 mg/kg p.o.): 0%
Number of animals with reinfusion arrhythmia (anesthetized rabbits; 2.5 mg/kg p.o.): 2/5
% change in arterial pressure (anesthetized rabbits; 10 mg/kg p.o.): 15%
% change in heart rate (anesthetized rabbits; 10 mg/kg p.o.): 5%
% inhibition of over-increase of ST segment (anesthetized rabbits; 10 mg/kg p.o.): 100%
Number of animals with reinfusion arrhythmia (anesthetized rabbits; 10 mg/kg p.o.): 0/5

melting point: 132 to 133 °C
Molecule: COc1ccc(CCOCC(O)CN2CCC(N(C)C3=Nc4ccccc4CS3)CC2)cc1.O=C(O)/C=C/C(=O)O (stereo not drawn)

% change in arterial pressure (anesthetized rabbits; 0.63 mg/kg p.o.): 0%
Molecule: CN(C1=Nc2ccccc2CS1)C1CCN(CCCOCCc2ccc(F)cc2)CC1 [Example 6, N-Methyl-N-[1-[3-[2-(4-fluorophenyl)ethoxy]propyl]-4-piperidyl]-4H-3,1-benzothiazin-2-amine Hydrogen Fumarate]
inhibition at 0.1 µM (rat isolated left atrium): 41%
inhibition at 1 µM [1]: 79%
% change in heart rate (anesthetized rabbits; 0.63 mg/kg p.o.): −7%
% inhibition of over-increase of ST segment (anesthetized rabbits; 0.63 mg/kg p.o.): 42%
Number of animals with reinfusion arrhythmia (anesthetized rabbits; 0.63 mg/kg p.o.): 3/5

melting point: 145 to 146 °C
Molecule: CN(C1=Nc2ccccc2CS1)C1CCN(CCOCCc2ccc(F)cc2)CC1 (as salt: fumarate) [Example 9, N-Methyl-N-[1-[2-[2-(4-fluorophenyl)ethoxy]ethyl]-4-piperidyl]-4H-3,1-benzothiazin-2-amine]

melting point: 163 to 164 °C
Molecule: CN(C1=Nc2ccccc2CS1)C1CCN(CCCOCCc2ccc(F)cc2)CC1 (as salt: fumarate) [Example 6, N-Methyl-N-[1-[3-[2-(4-fluorophenyl)ethoxy]propyl]-4-piperidyl]-4H-3,1-benzothiazin-2-amine Hydrogen Fumarate]

melting point: 176 °C
Molecule: CN(C1=Nc2ccccc2CS1)C1CCN(CCCOCCCc2ccc(F)cc2)CC1.O=C(O)/C=C/C(=O)O

melting point: 152 to 153 °C
Molecule: COc1ccc(CCOCCN2CCC(N(C)C3=Nc4ccccc4CS3)CC2)cc1.O=C(O)/C=C/C(=O)O

melting point: 160 to 161 °C
Molecule: CN(C1=Nc2ccccc2CS1)C1CCN(CCOCc2ccc(F)cc2)CC1.O=C(O)/C=C/C(=O)O

melting point: 166 °C
Molecule: CN(C1=Nc2ccccc2CS1)C1CCN(CCCOCCc2ccccc2)CC1.O=C(O)/C=C/C(=O)O

melting point: 163 °C
Molecule: COc1ccc(COCCCCCN2CCC(N(C)C3=Nc4ccccc4CS3)CC2)cc1.O=C(O)/C=C/C(=O)O

melting point: 163 to 164 °C
Molecule: CN(C1=Nc2ccccc2CS1)C1CCN(CCCOCc2ccc(F)cc2)CC1.O=C(O)/C=C/C(=O)O

Molecule: CS(=O)(=O)c1cc(C(=O)NC(=N)N)ccc1N1CCCCC1.Cl [HOE 694, 3-(Methylsulfonyl-4-piperidinobenzoyl)guanidine hydrochloride, reference compound]
% diastolic contracture inhibition at 1 μM [1]: 17%
